Counter-ions that a name gives are not always drawn. Like-named read-outs stand apart in the source and are kept apart here.
What was measured:
Type in all cases: in vivo
[1] = I.P. symptomatology (highest tolerated dose, median lethal dose), Table IV; conditions: for LD50 / MTD: in vivo, ip; for MTD: read-out: HTD (highest tolerated dose)
sciatic block = assay: Local anesthetic sciatic block, Table IV; conditions: 1%
[2] = Narcotic antagonism I.P., Table IV
[3] = Analgesic activity, hot plate method
[4] = Analgesic activity, writhing method

Row | Compound | LD50 [1] [mg/kg] | MTD [1] [mg/kg] | Local Anesthetic Sciatic Block (sciatic block) | Narcotic Antagonism [2] | other results
1 | C[C@@H]1Cc2ccccc2CCN1 (single isomer, unassigned) [Example 49, (+)-2-Methyl-1,2,4,5-tetrahydro-3H,3-benzazepine hydrochloride] | 200 | 30 | Positive | Negative | –
2 | CCN1CCc2ccc(O)cc2CC1 [Example 21, 3-Ethyl-7-hydroxy-1,2,4,5-tetrahydro-3H,3-benzazepine] | 80 | 30 | – | Positive | –
3 | COc1ccc2c(c1)CC(C)N(C)CC2 (single isomer, unassigned; (-)) [Example 63, (-)-8-Methoxy-2,3-dimethyl-1,2,4,5-tetrahydro-3H,3-benzazepine hydrochloride] | – | – | Positive | Negative | HTD (highest tolerated dose) ([1]; hydrochloride): 3 mg/kg
4 | COc1ccc2c(c1)CC(C)N(CC1CC1)CC2 (centres unmarked) [Example 42, 3-Cyclopropylmethyl-8-methoxy-2-methyl-1,2,4,5-tetrahydro-3H,3-benzazepine hydrochloride] | 60 | 10 | – | Negative | –
5 | CC1Cc2cc(O)ccc2CCN1C (single isomer, unassigned; (+)) [Example 57, (+)-8-Hydroxy-2,3-dimethyl-1,2,4,5-tetrahydro-3H,3-benzazepine hydrochloride] | > 100 | 10 | Positive | – | –
6 | C=CCN1CCc2ccc(O)cc2CC1 [Example 11, 3-Allyl-7-hydroxy-1,2,4,5-tetrahydro-3H,3-benzazepine] | 50 | 20 | Positive | Positive | ED50 ([3]; ip): 35 mg/kg; ED50 ([3]; po): > 316 mg/kg; ED50 ([4]; po): > 316 mg/kg
7 | COc1ccc2c(c1)CC(C)NCC2 (single isomer, unassigned; (-)) [Example 51, (-)8-Methoxy-2-methyl-1,2,4,5-tetrahydro-3H,3-benzazepine] | – | 10 | Positive | Negative | –
8 | CC(C)=CCN1CCc2ccc(O)cc2CC1C (single isomer, unassigned; (+)) [Example 56, (+)-3-(3,3-Dimethylallyl)-8-hydroxy-2-methyl-1,2,4,5-tetrahydro-3H,3-benzazepine hydrochloride] | – | – | Positive | – | HTD (highest tolerated dose) [1]: 10 mg/kg; Narcotic Antagonism ([2]; hydrochloride): Negative
9 | CCCN1CCc2ccc(OC)cc2CC1 [Example 22, 7-Methoxy-3-n-propyl-1,2,4,5-tetrahydro-3H,3-benzazepine] | 50 | 30 | – | Positive | ED50 ([3]; ip): 26 mg/kg; ED50 ([3]; po): > 316 mg/kg; ED50 ([4]; po): > 316 mg/kg; ED50 ([4]; sc): > 32 mg/kg
10 | CC(C)=CCN1CCc2ccc(O)cc2CC1C (single isomer, unassigned; (-)) [Example 55, (-)-3-(3,3-Dimethylallyl)-8-hydroxy-2-methyl-1,2,4,5-tetrahydro-3H,3-benzazepine hydrochloride] | – | 10 | Positive | – | –
11 | COc1ccc(CCN2CCc3ccc(OC)cc3CC2C)cc1 (centres unmarked) [Example 61, 8-Methoxy-3-(p-methoxyphenethyl-2-methyl-1,2,4,5-tetrahydro-3H,3-benzazepine hydrochloride] | ~60 | 3 | Positive | Negative | –
12 | CCN1CCc2ccc(OC)cc2CC1 [Example 20, 3-Ethyl-7-methoxy-1,2,4,5-tetrahydro-3H,3-benzazepine] | 60 | 1 | Positive | Negative | ED50 ([3]; ip): 15 mg/kg; ED50 ([3]; po): > 125 mg/kg; ED50 ([4]; po): > 125 mg/kg; ED50 ([4]; sc): > 32 mg/kg
13 | COc1ccc2c(c1)CC(C)N(CC=Cc1ccccc1)CC2 (centres unmarked) [Example 44, 8-Methoxy-2-methyl-3-(3-phenylallyl)-1,2,4,5-tetrahydro-3H,3-benzazepine hydrochloride] | 60 | 10 | Insoluable | Negative | –
14 | C[C@H]1Cc2ccccc2CCN1 (single isomer, unassigned) [Example 48, (-)-2-Methyl-1,2,4,5-tetrahydro-3H,3-benzazepine] | 60 | 30 | Positive | Some | –
15 | COc1ccc2c(c1)CC(C)N(C)CC2 (single isomer, unassigned; (+)) [Example 62, (+)-8-Methoxy-2,3-dimethyl-1,2,4,5-tetrahydro-3H,3-benzazepine hydrochloride] | – | – | Positive | Negative | HTD (highest tolerated dose) ([1]; hydrochloride): 10 mg/kg
16 | Oc1ccc2c(c1)CCN(C[C@@H]1C[C@H]1c1ccccc1)CC2 (relative stereo) [Example 30, 7-Hydroxy-3(trans-2-phenylcyclopropylmethyl)-1,2,4,5-tetrahydro-3H,3-benzazepine] | > 1000 | 1000 | – | Negative | –
17 | COc1ccc2c(c1)CCN(CC1CCC1)CC2 [Example 13, 3-Cyclobutylmethyl-7-methoxy-1,2,4,5-tetrahydro-3H,3-benzazepine] | 80 | 30 | – | Negative | –

Row | Compound | LD50 [1] [mg/kg] | MTD [1] [mg/kg] | Local Anesthetic Sciatic Block (sciatic block) | Narcotic Antagonism [2] | other results
18 | COc1ccc2c(c1)CCN(CC1CCCC1)CC2 [Example 12, 3-Cyclopentylmethyl-7-methoxy-1,2,4,5-tetrahydro-3H,3-benzazepine] | – | – | – | – | ED50 ([3]; ip): 45 mg/kg; ED50 ([3]; po): > 178 mg/kg; ED50 ([4]; po): > 178 mg/kg
19 | Oc1ccc2c(c1)CCN(CC1CC1)CC2 [Example 8, 3-Cyclopropylmethyl-7-hydroxy-1,2,4,5-tetrahydro-3H,3-benzazepine] | 30 | 20 | Positive | Positive | –
20 | Oc1ccc2c(c1)CCN(CC1CCC1)CC2 [Example 9, 3-Cyclobutylmethyl-7-hydroxy-1,2,4,5-tetrahydro-3H,3-benzazepine] | 80 | 20 | Positive | Negative | –
21 | COc1ccc2c(c1)CC(C)NCC2 (centres unmarked) [Example 32, 8-Methoxy-2-methyl-1,2,4,5-tetrahydro-3H,3-benzazepine] | ~60 | ~10 | Positive | Negative | –
22 | COc1ccc2c(c1)CC(C)N(CC=C(C)C)CC2 (centres unmarked) [Example 33, 3-(3,3-Dimethylallyl)-8-methoxy-2-methyl-1,2,4,5-tetrahydro-3H,3-benzazepine hydrochloride] | 50 | 1 | – | Negative | –
23 | COc1ccc2c(c1)CC(C)N(CCc1ccc(O)cc1)CC2 (centres unmarked) [Example 58, 3-(P-Hydroxyphenethyl-8-methoxy-2-methyl-1,2,4,5-tetrahydro-3H,3-benzazepine hydrochloride] | > 300 | 1 | Insoluble | Negative | –
24 | COc1ccc2c(c1)CC(C)NCC2 (single isomer, unassigned; (+)) [Example 53, (+)-8-Methoxy-2-methyl-1,2,4,5-tetrahydro-3H,3-benzazepine hydrochloride] | – | – | Positive | Negative | HTD (highest tolerated dose) [1]: 10 mg/kg
25 | Oc1ccc2c(c1)CCN(Cc1ccco1)CC2 [Example 60, 3-Furfuryl-7-hydroxy-1,2,4,5-tetrahydro-3H,3-benzazepine hydrochloride] | ~200 | 10 | Positive | Negative | –
26 | COc1ccc2c(c1)CC(C)N(CCc1ccccc1C)CC2 (centres unmarked) [Example 59, 3-(o-Methylphenethyl)-8-methoxy-2-methyl-1,2,4,5-tetrahydro-3H,3-benzazepine hydrochloride] | ~60 | 0.3 | Insoluble | Negative | –
27 | COc1ccc2c(c1)CCN(CC=C(C)C)CC2 [Example 3, 3-(3,3-Dimethylallyl)-7-methoxy-1,2,4,5-tetrahydro-3H,3-benzazepine] | 50 | 30 | Positive | Negative | –
28 | Oc1ccc2c(c1)CCNCC2 [Example 2, 7-Hydroxy-1,2,4,5-tetrahydro-3H,3-benzazepine] | 200 | 10 | Positive | Negative | –
29 | C[C@H]1Cc2ccccc2CCN1C (single isomer, unassigned) [Example 50, (+)-2,3-Dimethyl-1,2,4,5-tetrahydro-3H,3-benzazepine hydrochloride] | – | 10 | Positive | Negative | LD50 (median lethal dose) [1]: 25 mg/kg
30 | CN1CC[C@]23c4c5ccc(O)c4O[C@H]2[C@@H](O)C=C[C@H]3[C@H]1C5 [Morphine, reference compound] | – | – | – | – | Hot Plate ED50 ([3]; IP): 2.5 mg/kg; Hot Plate ED50 ([3]; PO): 14 mg/kg; Writhing ED50 ([4]; PO): 3 mg/kg
31 | C[C@@H]1Cc2ccccc2CCN1C (single isomer, unassigned) [Example 54, (-)-2,3-Dimethyl-1,2,4,5-tetrahydro-3H,3-benzazepine hydrochloride] | 60 | 3 | Positive | Negative | –
32 | COc1ccc2c3c1O[C@H]1[C@@H](O)C=C[C@H]4[C@@H](C2)N(C)CC[C@@]341 [Codeine, reference compound] | – | – | – | – | ED50 ([3]; ip): 12 mg/kg; ED50 ([3]; po): 20 mg/kg; ED50 ([4]; po): 17 mg/kg
33 | CC(C)=CCN1CCc2ccc(OC(=O)C34CC5CC(CC(C5)C3)C4)cc2CC1 [Example 6, 7-(Adamantanecarbonyloxy)-3-(3,3-dimethylallyl)-1,2,4,5-tetrahydro-3H,3-benzazepine hydrochloride] | > 300 | 10 | – | Positive | –
